Assay results from patent US20090258836A1, “EFFECTIVE DELIVERY OF CROSS-SPECIES A3 ADENOSINE-RECEPTOR ANTAGONISTS TO REDUCE INTRAOCULAR PRESSURE” (The Trustees of The University of Pennsylvania, priority 2006, published 2009).
Entries after “also recorded” stand apart in the source; their conditions may differ.

Assays:
human A2A receptors = human A2A receptors (Homo sapiens, UniProt P29274); conditions: literature; read-out: Ki for the binding to human A2A receptors; cited from earlier work
[1] = tested on: HCE (human ciliary epithelial) cell line, NPE cells; assay: Cell volume in isosmotic solution (isosmotic shrinkage), Coulter Counter; assay type: cell-based
Description: Cell Culture The HCE (human ciliary epithelial) cell line (Carre et al., supra, 1997) is an immortalized NPE cell line obtained from primary cultures of adult human epithelium. […] Eye Res. 57:3057-3063 (1993); Yantorno et al., Exp. Eye Res. 49:423-437 (1989)). […] Cells were passaged every 6-7 days and were studied 8-13 days after passage, after reaching confluence. An immortalized PE-cell line from a primary culture of bovine pigmented ciliary epithelium were also grown under matching conditions. Measurement of Cell Volume in Isosmotic Solution: The volume of PE and NPE cells was measured, since the movement of fluid underlies a change in PE and NPE cell volume, respectively. This is also thought to be the same as the movement of fluid which underlines the secretion of aqueous humor (FIG. 1). […] Parallel aliquots of cells were studied on the same day. One aliquot usually served as a control, and the others were exposed to different experimental conditions at the time of suspension. The same amount of solvent vehicle (dimethylformamide, DMSO or ethanol) was always added to the control and experimental aliquots. […] Cell volumes of isosmotic suspensions were measured with a Coulter Counter (model ZBI-Channelyzer II), using a 100 μm aperture (Civan et al., supra, 1994). As previously described (Wax et al., supra, 1993), the cell volume (vC) of the suspension was taken as the peak of the distribution function. Cell shrinkage was fit as a function of time (t) to a monoexpenential function: […]^0^)/τ] {1) where v∞ is the steady-state cell volume, v0 is the cell volume at the first point (t0) of the time course to be fit, and τ is the time constant of the shrinkage. For purposes of data reduction, the data were normalized to the first time point, taken to be 100% isotonic volume. Fits were obtained by nonlinear least-squares regression analysis, permitting both v∞ and τ to be variables. […] Med. Chem. 37:636-646 (1994; Jacobson et al., supra, 1995; Jacobson et al., FEBS Lett. 336:57-60 (1993)).

mouse IOP [2] = assay: Mouse IOP after topical application, non-invasive pneumotonometry; assay type: in vivo, Black Swiss mice; conditions: for Δ(IOP) Pneumotonometer: topical droplets 200 nM (1% DMSO), 30 min
Description: (§1) The test animals were black Swiss outbred mice of mixed sex, 7-9 weeks old and 25-30 g in weight, obtained from Taconic Inc. (Germantown, N.Y.), and maintained under 12:12-h light/dark illumination cycle and allowed unrestricted access to food and water. Mice were anesthetized with intraperitoneal ketamine ([…]) supplemented by topical proparacaine HCl 0.5% (Allergan, Bausch & Lomb) for the IOP measurements. IOP was measured invasively (SNMS) and non-invasively by pneumotonometry in separate animals.
By comparison, IOP was measured non-invasively by pneumotonometry (OBT) (Avila et al., supra, 2005). As previously described, the commercially available tip of the ocular blood tomography (OBT) pneumotonometer (Blood Flow Analyzer [BFA] probe tip; Paradigm Medical Industries Inc.) was fit to a custom-built mount. Air flow from a constant pressure source was passed through the mount to reach a diaphragm forming the end of the BFA tip. The flow of air displaces the diaphragm outward, permitting escape of the air through holes in the wall of the probe tip into the atmosphere. Pressure was monitored with a transducer connected through a T-connection to the base of the BFA tip. The probe assembly was advanced to the cornea with a three-axis micromanipulator. The probe tip was advanced sufficiently to make contact with the tear film, as was indicated by a shift in the baseline output reading. In a refined method, the tip was withdrawn until the […] was visually displaced from the tear film. The output was then adjusted to zero before advancing the tip again. Contact with the cornea depresses the diaphragm of the BFA tip, occluding access of the air flow to the escape holes and raising the pressure at the base of the tip.
This approach was simplified to expedite identification of the endpoint, and the probe was subsequently advanced in about 10 standardized steps of approximately […] at intervals of about 10 seconds to identify the inflection region (Wang et al., supra, 2006). […] The pneumotonometric estimates of IOP were previously found to agree with manometric measurements in cannulated preparations and with estimates obtained by the servo-null technique (Avila et al., supra, 2005). Having established the baseline value of IOP, the position along the axis of advance of the micromanipulator was noted, and the probe was retracted from contact with the cornea. Subsequent measurements of IOP at later time points were obtained by advancing the probe tip to the same position, with the placement of the mouse maintained stereotactically. The measurements were conducted at 10-min intervals to avoid potential artifacts associated with prolonged pressure on the cornea.
(§2) Ketamine HCl was purchased from Phoenix Pharmaceutical Inc. (St. Joseph, Mo.). Other drugs were obtained from Sigma Chemical (St. Louis, Mo.). Drugs were applied topically with an Eppendorf pipette. […] The final droplet solution contained the drugs at the stated concentrations together with <2% DMSO and 0.0005% benzalkonium chloride at an osmolality of 295-300 mOsm. DMSO was omitted, altogether, from droplets containing the hydrophilic compounds adenosine, carbachol and carboxyfluorescein.
(§3) Effects on invasively-measured IOP were measured 10 min after topical application because after this time, the continued presence of the micropipette can be associated with a downward drift of the IOP, even under control conditions. In contrast, smaller droplets ([…]) were applied to the eye more frequently (three times instead of once) with the non-invasive technique, in order to forestall drying of the eye associated with the airflow from the pneumotonometer. With the non-invasive protocol, the IOP was stable for 30 min under control conditions.
In Table 1, an endpoint of 10 minutes was used for the invasive measurements in light of the above-discussed downward drift of the IOP, even under control conditions. […]

mouse IOP [3] = assay: Mouse IOP after topical application, invasive servo-null micropipette system (SNMS); assay type: in vivo, Black Swiss mice
Description: as §1
By the SNMS approach (Avila et al., supra, 2001), the exploring micropipette, of […] outer diameter, was filled with a highly conducting solution and advanced across the cornea into the anterior chamber. A refined technique by Wang et al., Invest. Opthalmol. Vis. Sci. (serial online) (Aug. 31, 2006) available at www.iovs.org/egi/letters/46/9/3274#422, enhanced stability and reduce the background noise of the records, permitting fabrication of micropipettes whose resistance is 0.1-0.3 MΩ, rather than the 0.25-0.4 MΩ used initially. The filling solution was reduced from 3M KCl to 2M NaCl, rather than 3 M KCl. The resistance of the filled micropipette was balanced in a bridge circuit, and the tip was then advanced across the cornea. Upon entering the anterior chamber of the eye, the IOP forces the much lower-conducting aqueous humor into the micropipette tip, displacing the original filling solution. The micropipette resistance was thereby increased, unbalancing the bridge circuit and triggering a bellows to provide a counter-pressure, restoring the position of the filling solution and returning the resistance to its initial value. Thus, the value of the counter-pressure equals the IOP. As in the past (Avila et al., supra, 2001), the stability of the records permitted continuous measurements for tens of minutes during the course of drug applications.
as §2, §3
In Table 1, an endpoint of 10 minutes was used for the invasive measurements in light of the above-discussed downward drift of the IOP, even under control conditions. Also the need for smaller, more frequent droplets are discussed above with regard to the non-invasive technique using the pneumotonometer. As above, with the non-invasive protocol, the IOP was stable for 30 minutes under control conditions.

mouse IOP [4] = assay: Mouse IOP monitored with SNMS, protocols of Yang et al. 2005; assay type: in vivo
Description: Pharmacol. 65:1675-1684 (2003)), is effective both in blocking adenosine-triggered shrinkage of cultured human NPE cells and in lowering IOP of mice (Yang et al., supra, 2005). MRS-1292 was tested on the mouse for two reasons. Transgenic mice provide a convenient opportunity for studying the molecular physiology and pharmacology in the living animal ([…] al., supra, 2003). Second, measurement of IOP permitted us to assess the effects of MRS-1292 on the target parameter. […] Therefore, to directly assess the effect of MRS-1292 in vivo in the mouse, IOP was monitored before and after drug application. IOP was monitored with the Servo-Null-Micropipette System (SNMS). The test protocols are described in detail by Yang et al. supra, 2005, herein incorporated by reference. […] In comparison, addition of the same volume of saline at the same osmolality produced no significant change in IOP (-0.3±1.2 mmHg, n=6, p>0.8) 14 min later. […] To estimate an approximate range, “penetrance” was defined by Yang et al. as the ratio of the published Ki value at receptors in vitro to the minimally effective droplet concentration, for a number of adenosine agonists and antagonists. Thus, penetrance ranges from 1:100 to 1:1000 for purinergic drugs that have been tested in the mouse, and it is not very different from the drug penetrance of 1:100 for agents applied topically to rabbits and primates. This rule of thumb also applies to acylguanidine blockers and bumetanide, whose topical effects have also been studied in the mouse eye. Thus, the approximately 1:1000 penetrance that Yang et al. reported in the 2003 citation for MRS 1292 in the present experiments is consistent with past studies

cultured human NPE cells = conditions: cited from earlier work
pupil size = assay: Pupil diameter after topical carbachol with or without corneal impalement; assay type: in vivo, mouse
Description: as §1
To measure pupil diameter, the pupil and an adjacent ruler having 1-mm graticules were imaged with a digital camera. Care was taken to avoid applying mechanical stress, and consequently to avoid displacing the micropipette tip from its position in the anterior chamber. Lengths were measured by IMAGE J (National Institutes of Health) and the pupil diameters were calibrated to the ruler.
Pupillary diameter was measured before and 10 min after topical addition of […] containing 40 mM ([…]) of the miotic carbachol to both eyes of the mouse. One eye was not punctured; the other eye was impaled with the SNMS micropipette. Either the right or left eye of each mouse was chosen randomly for impalement. At so low a topical concentration and in the absence of a micropipette, exposure to carbachol for 10 min had no significant effect on pupillary size. The baseline diameter was 1.80±0.11, and was insignificantly changed by carbachol application, increasing by 0.12±0.17 mm (n=6, P>0.4).

Chain of human A2A receptors (P29274 whole entry): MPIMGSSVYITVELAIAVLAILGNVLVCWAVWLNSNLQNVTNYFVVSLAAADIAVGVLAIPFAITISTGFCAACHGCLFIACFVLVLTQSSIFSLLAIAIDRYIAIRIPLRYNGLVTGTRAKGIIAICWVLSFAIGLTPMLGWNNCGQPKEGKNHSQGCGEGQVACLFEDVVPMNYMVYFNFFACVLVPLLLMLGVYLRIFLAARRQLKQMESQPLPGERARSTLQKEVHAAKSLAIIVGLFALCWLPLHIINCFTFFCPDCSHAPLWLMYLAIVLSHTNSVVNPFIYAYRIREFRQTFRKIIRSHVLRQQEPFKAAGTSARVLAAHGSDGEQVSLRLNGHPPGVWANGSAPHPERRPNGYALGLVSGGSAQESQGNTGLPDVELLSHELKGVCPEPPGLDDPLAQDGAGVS

## 3-ethyl 5-benzyl-2-methyl-6-phenyl-4-styryl-1,4-(±)-dihydropyridine-3,5-dicarboxylate [MRS-1097]
Human A2A receptors
  Ki: 4.77 µM

## CCNC(=O)[C@H]1O[C@@H](n2cnc3c(N)nc(NCCc4ccc(CCC(=O)O)cc4)nc32)[C@H](O)[C@@H]1O [CGS-21680]
[1]; agonist 100 nM
  effect of agonist on isosmotic volume of NPE cells: exerted no effect; also recorded: no detectable effect
[1]; agonist 3 μM
  effect of agonist on isosmotic volume of NPE cells: triggered isosmotic shrinkage; also recorded: did trigger isosmotic shrinkage

## OC[C@H]1O[C@@H](n2cnc3c(NC4CCCC4)ncnc32)[C@H](O)[C@@H]1O [CPA, N^6-cyclopentyladenosine]
[1]; 30 nM and 1 μM (data not shown, N=3)
  effect of agonist on isosmotic volume of NPE cells: no significant shrinkage
[1]; agonist 100 nM
  effect of agonist on isosmotic volume of NPE cells: had little effect; also recorded: small slow effect of uncertain significance
[1]; agonist 3 μM
  effect of agonist on isosmotic volume of NPE cells: none at all; also recorded: no significant shrinkage

## CNC(=O)[C@H]1O[C@@H](n2cnc3c(NCc4cccc(I)c4)nc(Cl)nc32)[C@H](O)[C@@H]1O [Cl-IB-MECA]
[1]; in the presence of gramicidin, concentration not given
  shrinkage of HCE cells: produced shrinkage of HCE cells
Mouse IOP [2]; pneumotonometry, topical, MRS-3833 at 200 nM
  effect on mouse IOP measured non-invasively (in words): produced no significant increase in IOP
Mouse IOP [2]
  Δ(IOP) Pneumotonometer: +0.7 ± 1.4 mm Hg
Mouse IOP [3]; SNMS, after 10 min, adenosine 10 mM, Cl-IB-MECA 200 nM droplet
  increase in IOP over baseline: 10.0±2.9 mmHg
Mouse IOP [3]; topical droplet 200 nM (1% DMSO), endpoint 10 min
  Δ(IOP) Servo-Null: +10.0 ± 2.9 mm Hg

## O=C1NCCC12O[C@@H](n1cnc3c(NCc4cccc(I)c4)ncnc31)[C@H](O)[C@@H]2O (stereo partly drawn) [MRS-1292]
Mouse IOP [4]; 25 μM
  time of maximum reduction in IOP, mean: 15 ± 1 min
Mouse IOP [4]; droplets containing 25 μM
  maximum reduction in IOP: 4.4±0.8 mm Hg
Cultured human NPE cells; 10 μM adenosine plus MRS-1292
  time constant (τ) of the adenosine-triggered shrinkage in the presence of MRS-1292: 11.7 ± 2.6 min
Cultured human NPE cells; 10 μM adenosine, 2 min pretreatment with MRS-1292, gramicidin, 60 min study
  Δv∞ steady-state shrinkage: 1.9±0.2%

## CCOC(=O)c1c(CC)c(C(=O)SCC)c(CC)[n+](C)c1-c1ccccc1.[I-] [MRS-1649, 2,4-diethyl-1-methyl-3-(ethylsulfanylcarbonyl)-5-ethyloxycarbonyl-6-phenylpyridium iodide]
Mouse IOP [3]; tested by the inventors, technique not given
  effect on IOP in the mouse (in words): found to lower IOP in the mouse

## CCC(=O)O[C@@H]1[C@H](OC(=O)CC)[C@@H](C(=O)NC)O[C@H]1n1cnc2c(NCc3cccc(I)c3)nc(Cl)nc21 [MRS-3823]
Mouse IOP [2]
  Δ(IOP) Pneumotonometer: +0.2 ± 0.8 mm Hg

## C[N+](C)(C)CCOC(N)=O [carbachol]
Pupil size; 4 mM droplet, with or without corneal impalement (n=2)
  effect on pupil size: had no effect on pupil size
Pupil size; 40 mM droplet, 10 min, cornea impaled with micropipette
  reduction of the pupil diameter: 38%
Pupil size; 40 mM droplet, 10 min, cornea impaled, baseline 2.00±0.15 mm
  contraction of the pupil diameter: 0.76±0.09 mm
Pupil size; 40 mM droplet, 10 min, eye not punctured, baseline 1.80±0.11
  change (increase) of pupil diameter: 0.12±0.17 mm
